Measurements as given in patent US12581252B2, “Substituted pyrrolo[3,4-b]pyridines as PI3K-α inhibitors” (Relay Therapeutics, Inc., priority 2020, dated 2026).

Molecular target: H1047R PIK3CA enzyme (Homo sapiens, UniProt P42336, H1047R)
Test: ADP-Glo Biochemical PIK3CA Kinase Assay

Chain of H1047R PIK3CA enzyme (P42336 whole entry H1047R): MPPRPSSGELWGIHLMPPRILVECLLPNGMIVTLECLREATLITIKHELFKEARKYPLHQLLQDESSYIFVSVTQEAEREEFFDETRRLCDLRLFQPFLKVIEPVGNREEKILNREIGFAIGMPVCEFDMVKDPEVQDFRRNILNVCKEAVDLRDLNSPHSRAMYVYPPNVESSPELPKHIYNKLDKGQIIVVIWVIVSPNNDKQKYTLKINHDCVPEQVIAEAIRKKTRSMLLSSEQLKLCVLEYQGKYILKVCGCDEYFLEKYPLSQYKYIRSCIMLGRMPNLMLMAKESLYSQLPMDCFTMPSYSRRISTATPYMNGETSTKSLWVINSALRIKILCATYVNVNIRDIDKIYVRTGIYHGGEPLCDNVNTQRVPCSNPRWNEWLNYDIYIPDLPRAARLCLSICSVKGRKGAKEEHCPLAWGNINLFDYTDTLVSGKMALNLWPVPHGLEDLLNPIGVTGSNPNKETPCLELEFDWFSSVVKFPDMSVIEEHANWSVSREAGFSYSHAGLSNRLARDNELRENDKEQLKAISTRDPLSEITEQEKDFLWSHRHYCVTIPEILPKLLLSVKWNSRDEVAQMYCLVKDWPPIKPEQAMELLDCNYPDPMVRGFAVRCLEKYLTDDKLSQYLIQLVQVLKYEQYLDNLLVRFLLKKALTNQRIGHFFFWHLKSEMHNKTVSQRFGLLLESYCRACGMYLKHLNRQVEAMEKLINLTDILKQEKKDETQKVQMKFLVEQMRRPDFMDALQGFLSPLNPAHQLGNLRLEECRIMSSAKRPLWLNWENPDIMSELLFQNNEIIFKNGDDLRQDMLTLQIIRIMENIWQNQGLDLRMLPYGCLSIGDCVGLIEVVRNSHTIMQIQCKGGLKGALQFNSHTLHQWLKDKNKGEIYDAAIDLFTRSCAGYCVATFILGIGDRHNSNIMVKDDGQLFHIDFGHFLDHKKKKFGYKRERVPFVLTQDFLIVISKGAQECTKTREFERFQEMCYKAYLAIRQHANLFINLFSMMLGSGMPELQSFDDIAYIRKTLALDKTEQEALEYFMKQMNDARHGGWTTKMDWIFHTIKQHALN
Chain of H1047R PIK3CA enzyme (P27986 whole entry partner): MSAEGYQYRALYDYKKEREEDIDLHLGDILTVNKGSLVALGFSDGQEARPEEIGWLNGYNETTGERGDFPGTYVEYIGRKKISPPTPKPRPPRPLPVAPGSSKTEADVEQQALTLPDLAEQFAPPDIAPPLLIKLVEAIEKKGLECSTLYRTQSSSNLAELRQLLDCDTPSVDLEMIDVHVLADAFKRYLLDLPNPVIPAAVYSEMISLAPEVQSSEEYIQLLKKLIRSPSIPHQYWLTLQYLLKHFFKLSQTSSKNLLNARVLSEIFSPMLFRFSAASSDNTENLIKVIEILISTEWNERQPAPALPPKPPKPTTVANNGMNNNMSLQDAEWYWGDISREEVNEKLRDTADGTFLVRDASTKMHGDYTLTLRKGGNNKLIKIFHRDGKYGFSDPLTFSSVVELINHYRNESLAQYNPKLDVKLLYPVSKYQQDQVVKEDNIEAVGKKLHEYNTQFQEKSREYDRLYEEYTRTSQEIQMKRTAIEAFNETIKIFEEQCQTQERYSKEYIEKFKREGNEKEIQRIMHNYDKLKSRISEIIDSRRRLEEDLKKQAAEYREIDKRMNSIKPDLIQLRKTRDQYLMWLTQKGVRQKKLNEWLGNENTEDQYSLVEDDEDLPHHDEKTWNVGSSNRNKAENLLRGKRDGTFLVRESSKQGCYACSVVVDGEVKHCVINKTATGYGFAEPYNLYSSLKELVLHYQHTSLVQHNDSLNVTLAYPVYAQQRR

| Compound | IC50 |
| --- | --- |
| N#Cc1cc(NC(=O)c2cc(F)cc(C(F)(F)F)c2)c2c(c1)C(=O)NC2c1cc(F)ccc1C(F)F (stereo not drawn) [Compound I-237] | ≤ 100 nM |
| O=C(Nc1cc(C2COC2)cc2c1[C@H](c1cc(F)ccc1Cl)NC2=O)c1cc(F)cc(C(F)(F)F)c1 [Compound I-590] | ≤ 100 nM |
| O=C(Nc1cc(-c2ccc3nnc(C(F)F)n3c2)cc2c1C(c1cc(F)ccc1Cl)NC2=O)c1cc(F)cc(C(F)(F)F)c1 (stereo not drawn) [Compound I-1840] | ≤ 100 nM |
| CNS(=O)(=O)Cc1cc(NC(=O)c2cc(F)cc(C(F)(F)F)c2)c2c(c1)C(=O)NC2c1cc(F)ccc1Cl (stereo not drawn) [Compound I-1365] | ≤ 100 nM |
| CC1(COc2cc(NC(=O)c3cc(F)cc(C(F)(F)F)c3)c3c(c2)C(=O)NC3c2cc(F)ccc2Cl)COC1 (stereo not drawn) [Compound I-748] | ≤ 100 nM |
| CC(C)(C#N)n1cc(-c2cc(NC(=O)c3cc(F)cc(C(F)(F)F)c3)c3c(c2)C(=O)N[C@H]3c2cc(F)ccc2Cl)cn1 (racemic) [Compound I-1661] | ≤ 100 nM |
| N#CCc1cc(NC(=O)N2C[C@@H](O)c3cc(F)ccc32)c2c(c1)C(=O)N[C@@H]2c1cc(F)ccc1Cl (single isomer, unassigned) [Compound I-2538] | ≤ 100 nM |
| O=C(Nc1cc(-c2ccc3ncnn3c2)nc2c1C(C1CCCCC1)NC2=O)c1cc(F)cc(C(F)(F)F)c1 (stereo not drawn) [Compound I-1607] | 500 to 1000 nM |
| CC(C)(O)c1cc(NC(=O)c2cc(F)cc(C(F)(F)F)c2)c2c(c1)C(=O)NC2c1cc(F)ccc1Cl (stereo not drawn) [Compound I-128, N-(3-(2-chloro-5-fluorophenyl)-6-(2-hydroxypropan-2-yl)-1-oxoisoindolin-4-yl)-3-fluoro-5-(trifluoromethyl)benzamide] | ≤ 100 nM |
| O=C1NC(c2cc(F)ccc2Cl)c2c(NC(=O)C3CC4(C3)CC(F)(F)C4)cc(Br)cc21 (stereo not drawn) [Compound I-1622] | 1000 to 10000 nM |
| CC(C)(CC(=O)Nc1cc(Br)cc2c1C(c1cc(F)ccc1Cl)NC2=O)C(F)(F)F (stereo not drawn) [Compound I-1757] | 10000 to 100000 nM |
| C/S(Cc1cc(NC(=O)c2cc(F)cc(C(F)(F)F)c2)c2c(c1)C(=O)NC2c1cc(F)ccc1Cl)=N\C#N (stereo not drawn) [Compound I-1494] | ≤ 100 nM |
| CCn1cc(-c2cc(NC(=O)c3cc(F)cc(C(F)(F)F)c3)c3c(n2)C(=O)NC3c2cc(F)ccc2Cl)ccc1=O (stereo not drawn) [Compound I-586] | ≤ 100 nM |
| Nc1nc2ccc(-c3cc(NC(=O)c4cc(F)cc(C(F)(F)F)c4)c4c(c3)C(=O)N[C@H]4c3cc(F)ccc3Cl)cn2n1 [Compound I-1445] | ≤ 100 nM |
| O=C1N[C@H](c2cc(F)ccc2Cl)c2c(NC(=O)N3C[C@](O)(C(F)(F)F)c4cc(F)ccc43)cc(-n3ccccc3=O)cc21 (single isomer, unassigned) [Compound I-2531] | 1000 to 10000 nM |
| N#Cc1cnn(Cc2cc(NC(=O)N3C[C@](O)(C(F)(F)F)c4cc(F)ccc43)c3c(c2)C(=O)N[C@H]3c2cc(F)ccc2Cl)c1 (single isomer, unassigned) [Compound I-2671] | 500 to 1000 nM |
| O=C(Nc1cc(N2CCC2)nc2c1C(c1cc(F)ccc1Cl)NC2=O)c1cc(F)cc(C(F)(F)F)c1 (stereo not drawn) [Compound I-441] | ≤ 100 nM |
| O=C(Nc1cc(CS(=O)(=O)N2CCC2)cc2c1C(c1cc(F)ccc1Cl)NC2=O)c1cc(F)cc(C(F)(F)F)c1 (stereo not drawn) [Compound I-1399] | ≤ 100 nM |
| CCn1cc(-c2cc(NC(=O)c3cc(F)cc(C(F)(F)F)c3)c3c(n2)C(=O)N[C@@H]3c2cc(F)ccc2Cl)ccc1=O [Compound I-614] | 1000 to 10000 nM |
| O=C1N[C@H](c2cc(F)ccc2Cl)c2c(NC(=O)N3C[C@@H](O)c4cc(F)ccc43)cc(-c3ccc(=O)n(C(F)F)c3)cc21 (single isomer, unassigned) [Compound I-2449] | 100 to 500 nM |
| O=C(Nc1cc(Br)cc2c1C(c1cc(F)ccc1Cl)NC2=O)c1cc(F)cc(CC(F)(F)F)c1 (stereo not drawn) [Compound I-1582] | 500 to 1000 nM |
| Cn1cc(-c2cc(NC(=O)c3cc(F)cc(C(F)(F)F)c3)c3c(n2)C(=O)N[C@H]3c2cc(F)ccc2Cl)ccc1=O [Compound I-588] | ≤ 100 nM |
| O=C(Nc1cc(NC2=NC[C@H](C(F)(F)F)O2)cc2c1[C@H](c1cc(F)ccc1Cl)NC2=O)c1cc(F)cc(C(F)(F)F)c1 (single isomer, unassigned) [Compound I-2323] | 100 to 500 nM |
| CN(C)c1cc(NC(=O)N2C[C@@](O)(C(F)(F)F)c3cc(F)ccc32)c2c(n1)C(=O)N[C@@H]2c1cc(F)ccc1Cl (single isomer, unassigned) [Compound I-2693] | 10000 to 100000 nM |
| O=C1NC(c2cc(F)ccc2Cl)c2c1cc(-c1ccc3ncnn3c1)cc2N1CCn2cc(C(F)(F)F)nc2C1 (stereo not drawn) [Compound I-2039] | 10000 to 100000 nM |
| CC(O)(CO)c1cc(NC(=O)c2cc(F)cc(C(F)(F)F)c2)c2c(c1)C(=O)NC2c1cc(F)ccc1Cl (stereo not drawn) [Compound I-382] | 100 to 500 nM |

The remaining lines, values ahead:

| IC50 | Compound |
| --- | --- |
| ≤ 100 nM | Cc1ncc(-c2cc(NC(=O)c3cc(F)cc(C(F)(F)F)c3)c3c(n2)C(=O)NC3c2cc(F)ccc2Cl)s1 (stereo not drawn) [Compound I-546] |
| 10000 to 100000 nM | O=C1NC(c2cc(F)ccc2Cl)c2c(NC(=O)C3(c4cccc(Cl)c4)CCCC3)cc(Br)cc21 (stereo not drawn) [Compound I-1637] |
| 100 to 500 nM | Cc1ncc(-c2cc(NC(=O)c3cc(F)cc(C(F)(F)F)c3)c3c(c2)C(=O)NC3c2cc(F)ccc2Cl)c(C)n1 (stereo not drawn) [Compound I-1092] |
| 1000 to 10000 nM | O=C1NC(c2cc(F)ccc2Cl)c2c(NC(=O)c3cc(F)cc4oc(=O)[nH]c34)cc(Br)cc21 (stereo not drawn) [Compound I-1319] |
| 1000 to 10000 nM | N#Cc1ccc2c(c1)N(C(=O)Nc1cccc3c1C(c1cc(F)ccc1Cl)NC3=O)CC2 (stereo not drawn) [Compound I-2427] |
| ≤ 100 nM | N#Cc1cnn(-c2cc(NC(=O)c3cc(F)cc(C(F)(F)F)c3)c3c(c2)C(=O)NC3c2cc(F)ccc2Cl)c1 (stereo not drawn) [Compound I-1140] |
| 10000 to 100000 nM | O=C1NC(c2cc(F)ccc2Cl)c2c(NC3CCc4ccccc43)cc(Br)cc21 (stereo not drawn) [Compound I-1852] |
| 10000 to 100000 nM | O=C1NC(c2cc(F)ccc2Cl)c2c(Nc3nccc4cccnc34)cc(Br)cc21 (stereo not drawn) [Compound I-761] |
| 100 to 500 nM | Cc1ccccc1C1NC(=O)c2cccc(NC(=O)N3CCc4ccc(Cl)cc43)c21 (stereo not drawn) [Compound I-110] |
| 10000 to 100000 nM | O=C1NC(c2cc(F)ccc2Cl)c2c(NC(=O)C3CCCc4ccccc4C3)cccc21 (mixture of isomers) [Compound I-2375] |
| 1000 to 10000 nM | O=C(Nc1cc(Br)cc2c1C(c1cc(F)ccc1Cl)NC2=O)c1ccc(OC(F)F)c(F)c1 (stereo not drawn) [Compound I-1286] |
| 10000 to 100000 nM | O=C1NC(c2cc(F)ccc2Cl)c2c(Br)cc(-c3ccc4ncnn4c3)cc21 (stereo not drawn) [Compound I-1672] |
| ≤ 100 nM | Cc1ccccc1C1NC(=O)c2c(CCO)ccc(NC(=O)c3nsc4ccccc34)c21 (stereo not drawn) [Compound I-434] |
| ≤ 100 nM | O=C(Nc1cc(-c2cnc(OC3CC3)nc2)cc2c1C(c1cc(F)ccc1Cl)NC2=O)c1cc(F)cc(C(F)(F)F)c1 (stereo not drawn) [Compound I-1492] |
| 1000 to 10000 nM | Cn1nccc1-c1cc(NC(=O)c2cc(F)cc(C(F)(F)F)c2)c2c(c1)C(=O)N[C@@H]2c1cc(F)ccc1Cl [Compound I-1137] |
| 100 to 500 nM | Cc1ccccc1C1NC(=O)c2c(-c3cnn(C)c3)ncc(NC(=O)c3cc(F)cc(C(F)(F)F)c3)c21 (stereo not drawn) [Compound I-254] |
| 1000 to 10000 nM | Cc1ccccc1C1NC(=O)c2c(P(C)(C)=O)ccc(NC(=O)c3cc(F)cc(C(F)(F)F)c3)c21 (stereo not drawn) [Compound I-365] |
| 1000 to 10000 nM | Cc1ccccc1C1NC(=O)c2cccc(NC(=O)c3csc4ccncc34)c21 (stereo not drawn) [Compound I-74] |
| 1000 to 10000 nM | O=C1NC(c2cc(F)ccc2Cl)c2c(Nc3nn(CCO)c4ccccc34)cc(-c3ccc4ncnn4c3)cc21 (stereo not drawn) [Compound I-1807] |

| IC50 | Compound |
| --- | --- |
| 1000 to 10000 nM | O=C1NC(c2cc(F)ccc2Cl)c2c1cc(-c1ccc3ncnn3c1)cc2S(=O)(=O)Cc1ccccc1 (stereo not drawn) [Compound I-1742] |
| 1000 to 10000 nM | O=C1N[C@H](c2cc(F)ccc2Cl)c2c(N[C@H]3CCOc4ccccc43)cc(-c3cnn(C(F)F)c3)nc21 (single isomer, unassigned) [Compound I-2159] |
| 1000 to 10000 nM | O=C1NC(c2cc(F)ccc2Cl)c2c(NC(=O)c3ncsc3Br)cccc21 (stereo not drawn) [Compound I-2397] |
| ≤ 100 nM | N#Cc1cnc2ccc(-c3cc(NC(=O)c4cc(F)cc(C(F)(F)F)c4)c4c(c3)C(=O)NC4c3cc(F)ccc3Cl)cc2c1 (stereo not drawn) [Compound I-1603] |
| 10000 to 100000 nM | O=C1NC(c2cc(F)ccc2Cl)c2c(NC(=O)N3CCC4(CC4)C3)cccc21 (stereo not drawn) [Compound I-2468] |
| 100 to 500 nM | NCC(O)c1cc(NC(=O)c2cc(F)cc(C(F)(F)F)c2)c2c(c1)C(=O)NC2c1cc(F)ccc1Cl (stereo not drawn) [Compound I-1290] |
| ≤ 100 nM | Cc1ccccc1[C@@H]1NC(=O)c2cc(CO)cc(NC(=O)c3nsc4ccccc34)c21 [Compound I-306] |
| 1000 to 10000 nM | C[C@]1(O)CN(C(=O)Nc2cc(Br)cc3c2C(c2cc(F)ccc2Cl)NC3=O)c2ccccc21 (single isomer, unassigned) [Compound I-1508] |
| 10000 to 100000 nM | COc1cc(C)c(C(=O)Nc2cccc3c2C(c2ccccc2C)NC3=O)cn1 (stereo not drawn) [Compound I-501] |
| 10000 to 100000 nM | O=C1NC(c2cc(F)ccc2Cl)c2c(Nc3noc4ccccc34)cc(Br)cc21 (stereo not drawn) [Compound I-1058] |
| 10000 to 100000 nM | O=C1N[C@@H](c2cc(F)ccc2Cl)c2c(NC(=O)[C@H]3CCCCN3)cc(-c3ccc4ncnn4c3)cc21 (racemic) [Compound I-1779] |
| 1000 to 10000 nM | O=C(Nc1cc(Br)cc2c1C(c1cc(F)ccc1Cl)NC2=O)c1ccccc1OC(F)(F)F (stereo not drawn) [Compound I-571] |
| 10000 to 100000 nM | N#CC1(C(=O)Nc2cc(-c3ccc4ncnn4c3)cc3c2C(c2cc(F)ccc2Cl)NC3=O)CCCC1 (stereo not drawn) [Compound I-1899] |
| 1000 to 10000 nM | O=C(Nc1cc(Br)cc2c1C(c1cc(F)ccc1Cl)NC2=O)c1cncc(Cl)c1 (stereo not drawn) [Compound I-909] |
| 500 to 1000 nM | O=C1N[C@H](c2cc(F)ccc2Cl)c2c(NC(=O)N3C[C@@H](O)c4cc(F)ccc43)cc(-n3cccn3)cc21 (single isomer, unassigned) [Compound I-2365] |
| ≤ 100 nM | Cc1ncc(-c2cc(NC(=O)c3cc(F)cc(C(F)(F)F)c3)c3c(n2)C(=O)N[C@H]3c2cc(F)ccc2Cl)cn1 [Compound I-653] |
| 1000 to 10000 nM | O=C(Nc1cc(-c2ccc3ncnn3c2)cc2c1[C@@H](c1cc(F)ccc1Cl)NC2=O)c1cc(F)cc2c1NC(=O)C2(F)F [Compound I-1583] |
| 10000 to 100000 nM | Cc1ccccc1C1NC(=O)c2cccc(NC(=O)c3csc4cncnc34)c21 (stereo not drawn) [Compound I-63] |
